# Experimental data taken from publication PMC10647090, “Structure-Based Discovery of Mouse Trace Amine-Associated Receptor 5 Antagonists” (Journal of Chemical Information and Modeling, 2023).
# Entries after “also recorded” stand apart in the source; their conditions may differ. Read-outs that look alike come from different tables or passages of the source.
# Columns and labels:
# mTAAR5 [1] = molecular target: T1, mTAAR5 (Mus musculus, UniProt Q5QD14); parameters: method as in PMID 29713997; settings: training set inactives; cited from earlier work
# T1 construct: rho tag (rhodopsin-derived tag) (N); expressed in transfected cells; host or cells: HEK293, transient transfection with lipofectamine 2000; plasmid a gift from Prof; Liberles
# T1 sequence (Q5QD14 1-337): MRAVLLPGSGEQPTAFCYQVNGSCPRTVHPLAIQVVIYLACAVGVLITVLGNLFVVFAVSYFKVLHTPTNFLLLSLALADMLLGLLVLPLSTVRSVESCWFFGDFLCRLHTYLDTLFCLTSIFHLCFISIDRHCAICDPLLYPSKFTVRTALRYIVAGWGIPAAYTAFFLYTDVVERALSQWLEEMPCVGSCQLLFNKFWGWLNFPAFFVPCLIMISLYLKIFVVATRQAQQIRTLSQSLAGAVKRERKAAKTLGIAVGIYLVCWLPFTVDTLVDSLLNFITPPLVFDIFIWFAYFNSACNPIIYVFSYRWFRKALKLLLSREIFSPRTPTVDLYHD
# mTAAR5 [2] = molecular target: T1, mTAAR5; settings: cited from earlier work; for Potency pIC50 (negative log of IC50, modulating cAMP levels): mTAAR5 antagonists; for Potency pEC50 (negative log of EC50, modulating cAMP levels): mTAAR5 agonist
# 5-HT1A [3] = settings: cited from earlier work
# 5-HT1A [4] = tested on: 5-HT1A; parameters: method as in ref 13-14 (SI); settings: ref 13-14 (SI); cited from earlier work
# mTAAR5 [5] = molecular target: T1, mTAAR5; assay: BRET cAMP assay, antagonistic activity against TMA; assay type: cell-based; settings: HEK293 cells cotransfected with mTAAR5 and cAMP BRET (EPAC) biosensor; against TMA 10 μM; 3 independent experiments
# Protocol: (§1) TAAR5 is a receptor coupled to a stimulatory G protein, and its activation evokes cAMP production. Therefore, HEK293 cells were cotransfected with mTAAR5 and cAMP BRET biosensor. Light emission changes according to the cAMP fluctuation.[60] TMA (10 μM) was used as a reference mTAAR5 agonist to evaluate the activity of the compounds throughout the BRET-based assay and tested at 10 μM for either agonistic or antagonistic activity.
# Human embryonic kidney 293cells (HEK293) were maintained in Dulbecco’s modified Eagle’s, high glucose, GlutaMAX^TM medium (Gibco^TM) supplemented with 10% 331 (v/v) of FBS and 1% penicillin/streptomycin at 37 °C in a humidified atmosphere at 95% air and 5% CO2. For the bioluminescence resonance energy transfer (BRET) experiments, cells were plated in 10 cm dishes 24 h prior to the transient transfection of 7 μg of rho-TAAR5 (a generous gift from Prof. Liberles) and 7 μg of EPAC using lipofectamine 2000 (Invitrogen). Five h after transfection, cells were plated in poly-D-lysinecoated 96-well microplates (well-assay white plate with clear bottom, Greiner) at a density of 70,000 cells per well in Opti-MEM (Gibco^TM) and then cultured for an additional 24 h. The serotonergic ligand library was purchased from Enzo (SCREEN-WELL Serotonergic ligand library).
# BRET experiments were performed as described previously.[60] All the compounds were tested at the initial concentration of 10 μM. For the evaluation of the agonistic activity, the plate was read immediately after the addition of the compounds for approximately 20 min. For the evaluation of the antagonistic activity, the compounds were added 5 min before the addition of the control TAAR5 agonist, TMA, and read for approximately 20 min. For the ones that were active, a concentration–response assessment was performed by using different concentrations of the antagonist. TMA is the standard mTAAR5 agonist and induces an increase in cAMP levels. The activity of a putative mTAAR5 antagonist was evaluated in its ability to decrease or abolish the increase of the cAMP levels induced by TMA. The IC50 was then calculated by measuring the effect of the compounds against the effect of TMA at 10 μM. Readings were collected using Tecan Infinite instrument that allows the sequential signals integration detected in the 465 to 505 nm and 515 to 555 nm windows. EPAC BRET biosensor was used to monitor cAMP levels. BRET ratio is plotted in the graphs. Increased cAMP specifically reflects an increase in the BRET ratio. The activity of an antagonist was evaluated in terms of the ability to counteract the TMA increase in the BRET ratio. The acceptor/donor ratio was calculated as previously described.[108] […] The data are representative of at least 3 independent experiments and are expressed as means ± SEM.
# 5-HT1F = molecular target: 5-HT1F; parameters: method as in ref 6, 11-12 (SI); settings: 11-12 (SI); cited from earlier work
# 5-HT1E = tested on: 5-HT1E; parameters: method as in ref 6, 11-12 (SI); settings: 11-12 (SI); cited from earlier work
# 5-HT4 = settings: cited from earlier work
# empty vector CTRL cells = assay: BRET cAMP assay in cells without mTAAR5 (empty vector); assay type: cell-based, human; settings: HEK-293 cells transfected with EPAC cAMP BRET biosensor and empty vector; listed as TMA
# Protocol: as §1
# Figure S6. Effect of TMA on cAMP level is mediated by mTAAR5. HEK-293 cells were transfected with
# EPAC cAMP BRET biosensor with mTAAR5 or empty vector.
# calculated as mean ± SEM of 3 independent experiments.
# (1 picture or pasted object on this page, not shown here)
# mTAAR5 [6] = molecular target: T1, mTAAR5; assay: BRET cAMP assay, agonistic activity; assay type: cell-based; settings: HEK-293 cells transfected with EPAC cAMP BRET biosensor and mTAAR5; compared to saline
# Protocol: as §1
# Human embryonic kidney 293cells (HEK293) were maintained in Dulbecco’s modified Eagle’s, high glucose, GlutaMAX^TM medium (Gibco^TM) supplemented with 10% 331 (v/v) of FBS and 1% penicillin/streptomycin at 37 °C in a humidified atmosphere at 95% air and 5% CO2. […]
# BRET experiments were performed as described previously.[60] […] For the evaluation of the agonistic activity, the plate was read immediately after the addition of the compounds for approximately 20 min. For the evaluation of the antagonistic activity, the compounds were added 5 min before the addition of the control TAAR5 agonist, TMA, and read for approximately 20 min. […] The activity of a putative mTAAR5 antagonist was evaluated in its ability to decrease or abolish the increase of the cAMP levels induced by TMA. […] Readings were collected using Tecan Infinite instrument that allows the sequential signals integration detected in the 465 to 505 nm and 515 to 555 nm windows. […]
compound,measurement,setting,value
CCN(CC)CCNC(=O)c1cc(Cl)c(N)cc1OC [Metoclopramide],activity at mTAAR5 in previous HTS campaigns,mTAAR5 [1],inactive
"COc1ccccc1N1CCN(CC2CCC(c3ccccc3)(c3ccccc3)O2)CC1 (centres unmarked) [Compound 3, 1-[(5,5-Diphenyloxolan-2-yl)methyl]-4-(2-methoxyphenyl)piperazine]","Potency pIC50 (negative log of IC50, modulating cAMP levels)",mTAAR5 [2],pIC50: 4.36
same,5-HT1A pKi,5-HT1A [3]; ref 10 (SI),7.64
"CCCN(CCC)C1CCc2cccc(O)c2C1 (centres unmarked) [Compound 6, 7-(dipropylamino)-5,6,7,8-tetrahydronaphthalen-1-ol]",5-HT1A pEC50,5-HT1A [4],7.24
same,IC50,mTAAR5 [5],3.8 µM
COc1ccccc1OCCNCC1COC(c2ccccc2)(c2ccccc2)O1 (centres unmarked) [Compound 4],"Potency pIC50 (negative log of IC50, modulating cAMP levels)",mTAAR5 [2],pIC50: 3.54
same,5-HT1A pKi,5-HT1A [3]; ref 5 (SI),9.22
"CN1CCC(c2c[nH]c3ccc(O)cc23)CC1 [Compound 5, 3-(1-methylpiperidin-4-yl)-1H-indol-5-ol]",5-HT1F pKi,5-HT1F,8.15
same,5-HT1E pEC50,5-HT1E,8.16
same,IC50,mTAAR5 [5],2.7 µM
"COc1cc(N)c(Cl)cc1C(=O)OCCCN1CCCCC1 [Compound 7, 3-(piperidin-1-yl)propyl 4-amino-5-chloro-2-methoxybenzoate]",5-HT4 pIC50,5-HT4; ref 15-16 (SI),6.31
same,IC50,mTAAR5 [5],4.7 µM
N-[2-(piperidinylamino)ethyl]-4-iodobenzamide,activity at mTAAR5 in previous HTS campaigns,mTAAR5 [1],inactive
"CN(C)C [Compound 1, Trimethylamine]",effect on cAMP level in the absence of mTAAR5,empty vector CTRL cells,not in empty vector CTRL cells; also recorded: no cAMP fluctuation
same,"Potency pEC50 (negative log of EC50, modulating cAMP levels)",mTAAR5 [2],pEC50: 5.49
same,effect on cAMP level with mTAAR5 expressed,mTAAR5 [6],increases cAMP levels
"C[N+](C)(C)CCC(=O)c1cccc2ccccc12 [Compound 2, Trimethyl-(3-naphthalen-1-yl-3-oxopropyl)azanium]","Potency pEC50 (negative log of EC50, modulating cAMP levels)",mTAAR5 [2],pEC50: 5.82
"CCN(CC)CCOC(=O)c1cc(Cl)c(N)cc1OC [Compound 8, 2-(diethylamino)ethyl-4-amino-5-chloro-2-methoxybenzoate]",5-HT4 pIC50,5-HT4; ref 17 (SI),6.11
same,IC50,mTAAR5 [5],13 µM
CCCN(CCC)[C@@H]1CCc2c(OC)cccc2[C@@H]1C [(+)-UH 232],activity at mTAAR5 in previous HTS campaigns,mTAAR5 [1],inactive
